For one experiment, the target named is T1, human recombinant HDAC6 (Homo sapiens, UniProt Q9UBN7).
T1 construct: purchased Calbiochem Inc. 382180
T1 sequence (Q9UBN7 1-1215): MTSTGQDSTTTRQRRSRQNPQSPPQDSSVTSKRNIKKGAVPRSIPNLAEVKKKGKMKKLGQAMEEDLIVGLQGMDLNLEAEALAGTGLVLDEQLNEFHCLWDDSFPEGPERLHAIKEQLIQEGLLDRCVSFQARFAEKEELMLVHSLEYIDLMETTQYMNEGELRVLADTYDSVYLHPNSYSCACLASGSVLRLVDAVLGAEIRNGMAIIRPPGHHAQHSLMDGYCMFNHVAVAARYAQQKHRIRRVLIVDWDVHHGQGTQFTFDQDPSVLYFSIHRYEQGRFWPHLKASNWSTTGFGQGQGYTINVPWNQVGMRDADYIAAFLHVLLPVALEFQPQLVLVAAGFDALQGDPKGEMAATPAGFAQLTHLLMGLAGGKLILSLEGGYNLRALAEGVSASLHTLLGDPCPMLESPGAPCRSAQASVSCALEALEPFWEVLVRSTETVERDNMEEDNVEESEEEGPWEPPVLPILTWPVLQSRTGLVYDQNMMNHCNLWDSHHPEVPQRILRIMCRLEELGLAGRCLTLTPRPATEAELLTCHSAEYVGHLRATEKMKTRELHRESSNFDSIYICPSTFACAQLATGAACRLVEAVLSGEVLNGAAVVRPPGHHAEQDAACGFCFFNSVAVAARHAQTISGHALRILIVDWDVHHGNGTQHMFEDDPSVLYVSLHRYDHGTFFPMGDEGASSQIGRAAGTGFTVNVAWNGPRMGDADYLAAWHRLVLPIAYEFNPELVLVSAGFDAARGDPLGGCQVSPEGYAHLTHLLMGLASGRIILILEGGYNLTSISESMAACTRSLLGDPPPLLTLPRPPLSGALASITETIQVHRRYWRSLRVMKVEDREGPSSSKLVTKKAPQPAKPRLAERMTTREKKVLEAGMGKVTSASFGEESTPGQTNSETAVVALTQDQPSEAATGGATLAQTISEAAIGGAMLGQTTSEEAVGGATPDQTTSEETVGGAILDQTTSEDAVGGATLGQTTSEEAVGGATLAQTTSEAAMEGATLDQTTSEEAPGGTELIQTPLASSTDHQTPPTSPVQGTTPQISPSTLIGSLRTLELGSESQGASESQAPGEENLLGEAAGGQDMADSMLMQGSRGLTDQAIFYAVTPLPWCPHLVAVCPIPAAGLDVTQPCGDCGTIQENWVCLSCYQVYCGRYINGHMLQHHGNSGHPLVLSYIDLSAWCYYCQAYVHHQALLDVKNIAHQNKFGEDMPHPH
Briefly: In vitro HDAC enzyme activity inhibition assay (HDAC6). The class given is biochemical. Particulars: for HDAC6 selectivity (fold): HDAC6 over HDAC1; for IC50: same protocol as the HDAC1 test, human recombinant HDAC6 (Calbiochem). The protocol: (§1) In order to confirm the selectivity of the compounds represented by Chemical Formula I of the present invention to HDAC6 through HDAC1 and HDAC6 enzyme activity inhibition experiments, a comparison experiment was performed using the material that has already been developed as a control group.
(§2) HDAC enzyme activity was measured using the HDAC Fluorimetric Drug Discovery Kit (Enzo Life Sciences, Inc., BML-AK511, 516). For the HDAC1 enzyme activity test, human recombinant HDAC1 (BML-SE456) was used as an enzyme source and Fluor de Lys-SIRT1 (BNL-KI177) was used as a substrate. After dispensing 5-fold diluted compounds into a 96-well plate, 0.3 μg of enzyme and 10 μM substrate were added to each well of the plate and allowed to react at 30° C. for 60 minutes. Next, Fluor de Lys Developer II (BML-KI176) was added and reacted for 30 minutes to complete the reaction, and then the fluorescence values (Ex 360, Em 460) were measured using a multi-plate reader (Flexstation 3, Molecular Device). The HDAC6 enzymes were tested using human recombinant HDAC6 (382180) from Calbiochem Inc., according to the same protocol as the HDAC1 enzyme activity test method. With respect to the final result values, respective IC50 values were calculated using GraphPad Prism 4.0 program, and results thereof were summarized in Table 4 below.

In another experiment the target is T2, human recombinant HDAC1 (Homo sapiens, UniProt Q13547).
T2 construct: purchased Enzo Life Sciences, Inc. BML-SE456
In words: In vitro HDAC enzyme activity inhibition assay (HDAC1). Particulars: Fluor de Lys-SIRT1 substrate 10 μM, 30° C., 60 minutes, fluorescence. The class given is biochemical. As to the method:
as §1, §2

T2 sequence (Q13547 whole entry): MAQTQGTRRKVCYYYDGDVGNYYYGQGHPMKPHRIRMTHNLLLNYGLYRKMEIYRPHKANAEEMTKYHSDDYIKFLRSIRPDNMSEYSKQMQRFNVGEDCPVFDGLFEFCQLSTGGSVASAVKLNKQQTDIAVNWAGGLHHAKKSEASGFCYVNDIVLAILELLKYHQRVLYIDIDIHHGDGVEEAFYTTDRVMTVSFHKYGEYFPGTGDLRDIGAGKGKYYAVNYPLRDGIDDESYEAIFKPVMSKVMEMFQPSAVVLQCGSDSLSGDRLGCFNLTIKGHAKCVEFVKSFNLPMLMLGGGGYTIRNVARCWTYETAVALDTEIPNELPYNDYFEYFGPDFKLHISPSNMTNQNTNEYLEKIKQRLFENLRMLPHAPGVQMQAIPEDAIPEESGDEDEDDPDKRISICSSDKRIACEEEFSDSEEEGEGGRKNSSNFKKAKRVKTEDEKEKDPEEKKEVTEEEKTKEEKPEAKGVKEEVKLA

With `O=S(=O)(C1CCN(c2ncccn2)CC1)N(Cc1cn2ccc(-c3nnc(C(F)F)o3)cc2n1)c1ccccc1` [Compound 4228, N-((7-(5-(difluoromethyl)-1,3,4-oxadiazol-2-yl)imidazo[1,2-a]pyridin-2-yl)methyl)-N-phenyl-1-(pyrimidin-2-yl)piperidine-4-sulfonamide], at human recombinant HDAC6, the “HDAC6 selectivity (fold)” value is listed as 486 fold and the IC50 worked out at 103 nM. Besides, the IC50 at human recombinant HDAC1 is above 50000 nM.
The like results for `CN1CCC(S(=O)(=O)N(Cc2cn3ccc(-c4nnc(C(F)F)o4)cc3n2)c2cccc(F)c2)CC1` [Compound 4236, N-((7-(5-(difluoromethyl)-1,3,4-oxadiazol-2-yl)imidazo[1,2-a]pyridin-2-yl)methyl)-N-(3-fluorophenyl)-1-methylpiperidine-4-sulfonamide] were, in that order, 678 fold, 73.8 nM and above 50000 nM.
For `CCN1CCC(S(=O)(=O)N(Cc2cn3ccc(-c4nnc(C(F)F)o4)cc3n2)c2cccc(F)c2)CC1` [Compound 4237, N-((7-(5-(difluoromethyl)-1,3,4-oxadiazol-2-yl)imidazo[1,2-a]pyridin-2-yl)methyl)-1-ethyl-N-(3-fluorophenyl)-piperidine-4-sulfonamide] the same measures were 821 fold, 60.9 nM and above 50000 nM.
The like results for `CC(C)N1CCC(S(=O)(=O)N(Cc2cn3ccc(-c4nnc(C(F)F)o4)cc3n2)c2cccc(F)c2)CC1` [Compound 4238, N-((7-(5-(difluoromethyl)-1,3,4-oxadiazol-2-yl)imidazo[1,2-a]pyridin-2-yl)methyl)-N-(3-fluorophenyl)-1-isopropylpiperidine-4-sulfonamide] were, in that order, 653 fold, 76.6 nM and above 50000 nM.
For the molecule `CC(CO)N1CCC(S(=O)(=O)N(Cc2cn3ccc(-c4nnc(C(F)F)o4)cc3n2)c2cccc(F)c2)CC1` (stereo not drawn) [Compound 4239, N-((7-(5-(difluoromethyl)-1,3,4-oxadiazol-2-yl)imidazo[1,2-a]pyridin-2-yl)methyl)-N-(3-fluorophenyl)-1-(1-hydroxypropan-2-yl)piperidine-4-sulfonamide], the “HDAC6 selectivity (fold)” value at human recombinant HDAC6 is 635 fold. Moreover, the IC50 was 78.8 nM on human recombinant HDAC6 and above 50000 nM on human recombinant HDAC1.
With `O=S(=O)(C1CCN(C2CCC2)CC1)N(Cc1cn2ccc(-c3nnc(C(F)F)o3)cc2n1)c1cccc(F)c1` [Compound 4240, 1-cyclobutyl-N-((7-(5-(difluoromethyl)-1,3,4-oxadiazol-2-yl)imidazo[1,2-a]pyridin-2-yl)methyl)-N-(3-fluorophenyl)piperidine-4-sulfonamide], at human recombinant HDAC6, the “HDAC6 selectivity (fold)” value is 936 fold. The IC50 is 53.4 nM at human recombinant HDAC6 and above 50000 nM on human recombinant HDAC1.
On to `O=S(=O)(C1CCN(C2COC2)CC1)N(Cc1cn2ccc(-c3nnc(C(F)F)o3)cc2n1)c1cccc(F)c1` [Compound 4241], for which, on human recombinant HDAC6, the “HDAC6 selectivity (fold)” value is recorded as 715 fold and the IC50 came out at 69.9 nM. Besides, the IC50 on human recombinant HDAC1 is above 50000 nM.
For `O=S(=O)(C1CCN(C2CCCCC2)CC1)N(Cc1cn2ccc(-c3nnc(C(F)F)o3)cc2n1)c1cccc(F)c1` [Compound 4242, 1-cyclohexyl-N-((7-(5-(difluoromethyl)-1,3,4-oxadiazol-2-yl)imidazo[1,2-a]pyridin-2-yl)methyl)-N-(3-fluorophenyl)piperidine-4-sulfonamide] the same measures were 800 fold, 62.5 nM and above 50000 nM.
For `O=S(=O)(C1CCN(C2CCOCC2)CC1)N(Cc1cn2ccc(-c3nnc(C(F)F)o3)cc2n1)c1cccc(F)c1` [Compound 4243, N-((7-(5-(difluoromethyl)-1,3,4-oxadiazol-2-yl)imidazo[1,2-a]pyridin-2-yl)methyl)-N-(3-fluorophenyl)-1-(tetrahydro-2H-pyran-4-yl)piperidine-4-sulfonamide] the same measures were 530 fold, 94.3 nM and above 50000 nM.
The like results for `O=S(=O)(C1CCN(C2CCC(F)(F)CC2)CC1)N(Cc1cn2ccc(-c3nnc(C(F)F)o3)cc2n1)c1cccc(F)c1` [Compound 4244, 1-(4,4-difluorocyclohexyl)-N-((7-(5-(difluoromethyl)-1,3,4-oxadiazol-2-yl)imidazo[1,2-a]pyridin-2-yl)methyl)-N-(3-fluorophenyl)piperidine-4-sulfonamide] were, in that order, 525 fold, 95.3 nM and above 50000 nM.
Turning to `CC(=O)N1CCC(S(=O)(=O)N(Cc2cn3ccc(-c4nnc(C(F)F)o4)cc3n2)c2cccc(F)c2)CC1` [Compound 4245, 1-acetyl-N-((7-(5-(difluoromethyl)-1,3,4-oxadiazol-2-yl)imidazo[1,2-a]pyridin-2-yl)methyl)-N-(3-fluorophenyl)piperidine-4-sulfonamide], at human recombinant HDAC6, the “HDAC6 selectivity (fold)” value amounted to 1055 fold. The IC50 at human recombinant HDAC6 was 47.4 nM; at human recombinant HDAC1 it was above 50000 nM.
With `CCC(=O)N1CCC(S(=O)(=O)N(Cc2cn3ccc(-c4nnc(C(F)F)o4)cc3n2)c2cccc(F)c2)CC1` [Compound 4246, N-((7-(5-(difluoromethyl)-1,3,4-oxadiazol-2-yl)imidazo[1,2-a]pyridin-2-yl)methyl)-N-(3-fluorophenyl)-1-propionylpiperidine-4-sulfonamide], the “HDAC6 selectivity (fold)” value at human recombinant HDAC6 is on record as 660 fold. The IC50 on human recombinant HDAC6 is 75.8 nM; at human recombinant HDAC1, above 50000 nM.
The like results for `O=C(CO)N1CCC(S(=O)(=O)N(Cc2cn3ccc(-c4nnc(C(F)F)o4)cc3n2)c2cccc(F)c2)CC1` [Compound 4247, N-((7-(5-(difluoromethyl)-1,3,4-oxadiazol-2-yl)imidazo[1,2-a]pyridin-2-yl)methyl)-N-(3-fluorophenyl)-1-(2-hydroxyacetyl)piperidine-4-sulfonamide] were, in that order, 980 fold, 51 nM and above 50000 nM.
For `O=C(C1CCC1)N1CCC(S(=O)(=O)N(Cc2cn3ccc(-c4nnc(C(F)F)o4)cc3n2)c2cccc(F)c2)CC1` [Compound 4248, 1-(cyclobutanecarbonyl)-N-((7-(5-(difluoromethyl)-1,3,4-oxadiazol-2-yl)imidazo[1,2-a]pyridine-2-yl)methyl)-N-(3-fluorophenyl)piperidine-4-sulfonamide] the same measures were 542 fold, 92.2 nM and above 50000 nM.
For `O=C(C1COC1)N1CCC(S(=O)(=O)N(Cc2cn3ccc(-c4nnc(C(F)F)o4)cc3n2)c2cccc(F)c2)CC1` [Compound 4249, N-((7-(5-(difluoromethyl)-1,3,4-oxadiazol-2-yl)imidazo[1,2-a]pyridin-2-yl)methyl)-N-(3-fluorophenyl)-1-(oxetan-3-carbonyl)piperidine-4-sulfonamide] the same measures were 684 fold, 73.1 nM and above 50000 nM.

For orientation: IC50 means the point on the concentration scale where inhibition reaches its midpoint.

(Values after patent publication US12466827B2, “1,3,4-oxadiazole derivative compounds as histone deacetylase 6 inhibitor, and the pharmaceutical composition comprising the same” (CHONG KUN DANG PHARMACEUTICAL CORP., priority 2020, dated 2025).)
